Patent US5759565A, “Galenic compositions comprising calcitonin and their use” (Novartis Corporation, priority 1982, dated 1998)

Experiments:
[1] = Relative bio-availability study: nasal administration/intra-muscular injection of salmon calcitonin, serum level by radio-immuno-assay; assay type: in vivo, human (healthy volunteers)
Procedure: The study is conducted with 12 healthy volunteers, 6 male and 6 female, with a body weight of from 50 to 85 kg. Each subject receives 4 administrations of salmon calcitonin, one intra-muscularly and 3 nasally. Administration is effected at the following dosages:
Nasal administration is effected using composition in accordance with example 1 and a spray-applicator delivering 55 MRC units per individual spray dosage. For the purposes of administration the subject is laid on the back with the head tilted backwards for 5 minutes. The nostrils are cleaned by blowing of the nose immediately prior to administration.
Intra-muscular administration is effected by injection of a single 1 ml dose of a composition similar to that of example 1, but omitting benzalkonium chloride and containing 50 MRC units into the glutaeus medius muscle.
Each subject receives the 4 administrations in randomized sequence, and at least 3 days are allowed between consecutive administrations. Each administration is effected in the morning after a light breakfast from which milk, butter and cheese is excluded. 100 ml water or orange juice is taken hourly following treatment to maintain urinary output. Further food is allowed not earlier than 4 hours after treatment.
Blood samples are taken immediately prior to administration (control), and at intervals of 5, 15, 30, 60, 90, 120, 180, 240, 360 and 480 minutes following administration. For the control a 20 ml sample is taken. All subsequent samples are 2 ml samples.
The concentration of salmon calcitonin in each serum sample is measured by radio-immuno-assay. Blood-pressure is controlled during the course of the trial and urine-samples tested for possible adverse reaction. Occurrence of side-effects, e.g. symptoms of nausea, is noted.
The AUC ("area under curve") for salmon calcitonin plasma concentration is calculated statistically, once employing all value, including those below the 26 pg/ml detectability limit, once with values below the detectability limit read as zero. Maximal plasma concentration and time at which this is reached are also determined. […]

[2] = tested on: ciliary beating frequency of rat trachea; test: Ciliary beating frequency, microphoto-oscillographic method of L. Chevance et al; assay type: cell-based; conditions: at 0.6%; within 20 minutes
Procedure: 70, […] (1970). These are just some of the disadvantageous effects that can be encountered.
Moreover the compositions are well tolerated as indicated in standard tests, e.g. in that less than 50% inhibition of ciliary beating frequency is observed up to 20 minutes after administration, according to the microphoto-oscillographic method of L. Chevance et al, Acta Otolaryng. 70, 26-28 (1970).

Structure (SMILES)	AUC of serum concentration compared with 50 MRC units i.m. ([1]; 110 MRC units intra-nasally)	AUC of serum concentration compared with 50 MRC units i.m. ([1]; 220 MRC units intra-nasally)	adverse side-effects ([1]; nasal administrations, up to the highest dosage of 220 MRC units)	inhibition of the ciliary beating frequency of rat trachea [2]
CC(C)C[C@H](NC(=O)[C@H](CCCCN)NC(=O)CNC(=O)[C@H](CC(C)C)NC(=O)[C@@H](NC(=O)[C@@H]1CSSC[C@H](N)C(=O)N[C@@H](CO)C(=O)N[C@@H](CC(N)=O)C(=O)N[C@@H](CC(C)C)C(=O)N[C@@H](CO)C(=O)N[C@@H]([C@@H](C)O)C(=O)N1)C(C)C)C(=O)N[C@@H](CO)C(=O)N[C@@H](CCC(N)=O)C(=O)N[C@@H](CCC(=O)O)C(=O)N[C@@H](CC(C)C)C(=O)N[C@@H](Cc1c[nH]cn1)C(=O)N[C@@H](CCCCN)C(=O)N[C@@H](CC(C)C)C(=O)N[C@@H](CCC(N)=O)C(=O)N[C@H](C(=O)N[C@@H](Cc1ccc(O)cc1)C(=O)N1CCC[C@H]1C(=O)N[C@@H](CCCNC(=N)N)C(=O)N[C@H](C(=O)N[C@@H](CC(N)=O)C(=O)N[C@H](C(=O)NCC(=O)N[C@@H](CO)C(=O)NCC(=O)N[C@H](C(=O)N1CCC[C@H]1C(N)=O)[C@@H](C)O)[C@@H](C)O)[C@@H](C)O)[C@@H](C)O [salmon calcitonin]	comparable	comparable	No adverse side-effects were recorded	–
CC(C)(O)C(Cl)(Cl)Cl [chlorbutanol]	–	–	–	more than 50%
